Reference: US12091409B2, “Ether linked triazoles as NRF2 activators” (ASTEX THERAPEUTICS LIMITED, priority 2016, dated 2024)
Structures can show the parent of a compound that is named as a salt.

The compounds below were run on NQO1 specific enzyme activity in BEAS-2B cells (marker for NRF2 activation) (assay: BEAS-2B NQO1 MTT Assay). Conditions: Homo sapiens, BEAS-2B, 48 h, NQO1 specific activity induction, 48 hours with compound.
Format: cell-based
How it was run: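 Following 48 h compound treatment at 37° C., 5% CO2, cells were lysed and MTT cocktail added. Product formation was followed kinetically at 570 nm for 30 min. Rate (Delta OD/min) against log concentration was fitted with 3 parameters to give pEC50 for induction of NQO1 specific activity.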

Compared with `COCCOCCn1cc(CO[C@H](c2ccc(C)c(CN3C[C@@H](C)Oc4ccccc4S3(=O)=O)c2)C(C)(C)C(=O)O)nn1` [Example 80, (R)-3-((1-(2-(2-methoxyethoxy)ethyl)-1H-1,2,3-triazol-4-yl)methoxy)-2,2-dimethyl-3-(4-methyl-3-(((R)-4-methyl-1,1-dioxido-3,4-dihydro-2H-benzo[b][1,4,5]oxathiazepin-2-yl)methyl)phenyl)propanoic acid], `COCCOCCn1cc(CO[C@@H](c2ccc(C)c(CN3C[C@@H](C)Oc4ccccc4S3(=O)=O)c2)C(C)(C)C(=O)O)nn1` [Example 71, (3S)-((1-(2-(2-methoxyethoxy)ethyl)-1H-1,2,3-triazol-4-yl)methoxy)-2,2-dimethyl-3-(4-methyl-3-(((R)-4-methyl-1,1-dioxido-3,4-dihydro-2H-benzo[b][1,4,5]oxathiazepin-2-yl)methyl)phenyl)propanoic acid] is higher in EC50: 1 to 10 nM for the first, 10 to 100 nM for the second. The first is the more potent here.

Compared with `Cc1ccc([C@@H](OCc2cn(CCOCCN=[N+]=[N-])nn2)C(C)(C)C(=O)O)cc1CN1C[C@@H](C)Oc2ccccc2S1(=O)=O` (single isomer, unassigned) [Example 15], `CCn1cc(COC(c2ccc(C)c(CN3C[C@@H](C)Oc4ccccc4S3(=O)=O)c2)C(C)(C)C(=O)O)nn1` (stereo partly drawn) [Example 11, 3-((1-Ethyl-1H-1,2,3-triazol-4-yl)methoxy)-2,2-dimethyl-3-(4-methyl-3-(((R)-4-methyl-1,1-dioxido-3,4-dihydro-2H-benzo[b][1,4,5]oxathiazepin-2-yl)methyl)phenyl)propanoic acid] is lower in EC50: 10 to 100 nM for the first, 1 to 10 nM for the second.

`Cc1ccc(C(OCc2cn(Cc3cccc(-c4ccc(C(=O)O)cc4)c3)nn2)C(C)(C)C(=O)O)cc1CN1C[C@@H](C)Oc2ccccc2S1(=O)=O` (stereo partly drawn) [Example 25, 3′-((4-((2-Carboxy-2-methyl-1-(4-methyl-3-(((R)-4-methyl-1,1-dioxido-3,4-dihydro-2H-benzo[b][1,4,5]oxathiazepin-2-yl)methyl)phenyl)propoxy)methyl)-1H-1,2,3-triazol-1-yl)methyl)-[1,1′-biphenyl]-4-carboxylic acid] and `CC[C@@H]1CN(Cc2cc(C(OCc3cn(Cc4cccc(-c5cccc(C(=O)O)c5)c4)nn3)C(C)(C)C(=O)O)ccc2C)S(=O)(=O)c2ccccc2O1` (stereo partly drawn) [Example 23, 3′-((4-((2-Carboxy-1-(3-(((R)-4-ethyl-1,1-dioxido-3,4-dihydro-2H-benzo[b][1,4,5]oxathiazepin-2-yl)methyl)-4-methylphenyl)-2-methylpropoxy)methyl)-1H-1,2,3-triazol-1-yl)methyl)-[1,1′-biphenyl]-3-carboxylic acid] fall in the same range of EC50: 10 to 100 nM for the first, 10 to 100 nM for the second.

`Cc1cc(Cn2cc(CO)nn2)cc(Cn2cc(COC(c3ccc(C)c(CN4C[C@@H](C)Oc5ccccc5S4(=O)=O)c3)C(C)(C)C(=O)O)nn2)c1` (stereo partly drawn) [Example 29, 3-((1-(3-((4-(Hydroxy-methyl)-1H-1,2,3-triazol-1-yl)methyl)-5-methylbenzyl)-1H-1,2,3-triazol-4-yl)methoxy)-2,2-dimethyl-3-(4-methyl-3-(((R)-4-methyl-1,1-dioxido-3,4-dihydro-2H-benzo[b][1,4,5]oxathiazepin-2-yl)methyl)phenyl)propanoic acid] and `Cc1ccc(C(OCc2cn(Cc3cccc(Cn4cc(CO)nn4)c3)nn2)C(C)(C)C(=O)O)cc1CN1C[C@@H](C)Oc2ccccc2S1(=O)=O` (stereo partly drawn) [Example 39, 3-((1-(3-((4-(Hydroxymethyl)-1H-1,2,3-triazol-1-yl)methyl)benzyl)-1H-1,2,3-triazol-4-yl)methoxy)-2,2-dimethyl-3-(4-methyl-3-(((R)-4-methyl-1,1-dioxido-3,4-dihydro-2H-benzo[b][1,4,5]oxathiazepin-2-yl)methyl)phenyl)propanoic acid] fall in the same range of EC50: 10 to 100 nM for the first, 10 to 100 nM for the second.

First: CCn1cc(CO[C@@H](c2ccc(C)c(CN3C[C@H](C)Cc4ccncc4S3(=O)=O)c2)C(C)(C)C(=O)O)nn1 [Example 63, (3S)-((1-ethyl-1H-1,2,3-triazol-4-yl)methoxy)-2,2-dimethyl-3-(4-methyl-3-(((R)-4-methyl-1,1-dioxido-4,5-dihydropyrido[4,3-f][1,2]thiazepin-2(3H)-yl)methyl)phenyl)propanoic acid]
Second: CCn1cc(CO[C@@H](c2ccc(C)c(CN3C[C@H](C)Cc4ccccc4S3(=O)=O)c2)C(C)(C)C(=O)O)nn1 [Example 65, (3S)-((1-ethyl-1H-1,2,3-triazol-4-yl)methoxy)-2,2-dimethyl-3-(4-methyl-3-(((R)-4-methyl-1,1-dioxido-4,5-dihydrobenzo[f][1,2]thiazepin-2(3H)-yl)methyl)phenyl)propanoic acid]
The EC50 of the first is higher: 1000 to 10000 nM for the first, 100 to 1000 nM for the second. The second is the more potent here.

First: CC[C@@H]1Cc2ccccc2S(=O)(=O)N(Cc2cc([C@@H](OCc3cn(CC)nn3)C(C)(C)C(=O)O)ccc2C)C1 [Example 77, (3R)-((1-ethyl-1H-1,2,3-triazol-4-yl)methoxy)-2,2-dimethyl-3-(4-methyl-3-(((R)-4-ethyl-1,1-dioxido-4,5-dihydrobenzo[f][1,2]thiazepin-2(3H)-yl)methyl)phenyl)propanoic acid]
Second: CC[C@H]1Cc2ccccc2S(=O)(=O)N(Cc2cc([C@@H](OCc3cn(C)nn3)C(C)(C)C(=O)O)ccc2C)C1 [Example 119, (R)-3-(3-(((S)-4-Ethyl-1,1-dioxido-4,5-dihydrobenzo[f][1,2]thiazepin-2(3H)-yl)methyl)-4-methylphenyl)-2,2-dimethyl-3-((1-methyl-1H-1,2,3-triazol-4-yl)methoxy)propanoic acid]
The EC50 of the first is higher: 1 to 10 nM for the first, < 1 nM for the second.

Compared with `CCn1cc(CO[C@H](c2ccc(C)c(CN(Cc3cccc(C(=O)O)c3)S(=O)(=O)c3ccccc3)c2)C(C)(C)C(=O)O)nn1` [Example 91, (R)-3-((N-(5-(2-carboxy-1-((1-ethyl-1H-1,2,3-triazol-4-yl)methoxy)-2-methylpropyl)-2-methylbenzyl)phenylsulfonamido)methyl)benzoic acid], `COCCn1cc(CO[C@H](c2ccc(C)c(CN(Cc3ccccc3)S(=O)(=O)c3cccc(C(=O)O)c3)c2)C(C)(C)C(=O)O)nn1` [Example 94, (R)-3-(N-benzyl-N-(5-(2-carboxy-1-((1-(2-methoxyethyl)-1H-1,2,3-triazol-4-yl)methoxy)-2-methylpropyl)-2-methylbenzyl)sulfamoyl)benzoic acid] is lower in EC50: 1000 to 10000 nM for the first, 100 to 1000 nM for the second.

Compared with `CCCn1cc(CO[C@H](c2ccc(C)c(CN3C[C@@H](C)Cc4ncccc4S3(=O)=O)c2)C(C)(C)C(=O)O)nn1` [Example 89, (R)-2,2-dimethyl-3-(4-methyl-3-(((S)-4-methyl-1,1-dioxido-4,5-dihydropyrido[2,3-f][1,2]thiazepin-2(3H)-yl)methyl)phenyl)-3-((1-propyl-1H-1,2,3-triazol-4-yl)methoxy)propanoic acid], `CCn1cc(CO[C@@H](c2ccc(C)c(CN3C[C@H](C)Cc4ncccc4S3(=O)=O)c2)C(C)(C)C(=O)O)nn1` [Example 64, (3S)-((1-ethyl-1H-1,2,3-triazol-4-yl)methoxy)-2,2-dimethyl-3-(4-methyl-3-(((R)-4-methyl-1,1-dioxido-4,5-dihydropyrido[2,3-f][1,2]thiazepin-2(3H)-yl)methyl)phenyl)propanoic acid] is higher in EC50: < 1 nM for the first, 100 to 1000 nM for the second. The first is the more potent here.

Compared with `Cc1ccc(C(OCc2cn(CC3CCN(C(N)=O)CC3)nn2)C(C)(C)C(=O)O)cc1CN1C[C@@H](C)Oc2ccccc2S1(=O)=O` (stereo partly drawn) [Example 100, 3-((1-((1-Carbamoylpiperidin-4-yl)methyl)-1H-1,2,3-triazol-4-yl)methoxy)-2,2-dimethyl-3-(4-methyl-3-(((R)-4-methyl-1,1-dioxido-3,4-dihydro-2H-benzo[b][1,4,5]oxathiazepin-2-yl)methyl)phenyl)propanoic acid], `Cc1ccc(C(OCc2cn(CC3CCN(C(=O)OC(C)(C)C)CC3)nn2)C(C)(C)C(=O)O)cc1CN1C[C@@H](C)Oc2ccccc2S1(=O)=O` (stereo partly drawn) [Example 20, 3-((1-((1-(Tert-butoxycarbonyl)piperidin-4-yl)methyl)-1H-1,2,3-triazol-4-yl)methoxy)-2,2-dimethyl-3-(4-methyl-3-(((R)-4-methyl-1,1-dioxido-3,4-dihydro-2H-benzo[b][1,4,5]oxathiazepin-2-yl)methyl)phenyl)propanoic acid] is lower in EC50: 100 to 1000 nM for the first, 1 to 10 nM for the second.

First: CCn1cc(CO[C@H](c2ccc(C)c(CN3C[C@@H](C)Cc4ccccc4S3(=O)=O)c2)C(C)(C)C(=O)O)nn1 [Example 84]
Second: CC[C@@H]1CN(Cc2cc([C@@H](OCc3cn(CC)nn3)C(C)(C)C(=O)O)ccc2C)Cc2ccccc2O1 [Example 117, (R)-methyl 3-((1-ethyl-1H-1,2,3-triazol-4-yl)-methoxy)-3-(3-(((R)-2-ethyl-2,3-dihydro-benzo[f][1,4]oxazepin-4(5H)-yl)methyl)-4-methylphenyl)-2,2-dimethyl-propanoic acid, trifluoroacetate]
The EC50 of the first is lower: < 1 nM for the first, 10 to 100 nM for the second. The first is the more potent here.

First: Cc1ccc(C(OCc2cn(Cc3cccc(Cn4cc(C(C)C)nn4)c3)nn2)C(C)(C)C(=O)O)cc1CN1C[C@@H](C)Oc2ccccc2S1(=O)=O (stereo partly drawn) [Example 37, 3-((1-(3-((4-Isopropyl-1H-1,2,3-triazol-1-yl)methyl)benzyl)-1H-1,2,3-triazol-4-yl)methoxy)-2,2-dimethyl-3-(4-methyl-3-(((R)-4-methyl-1,1-dioxido-3,4-dihydro-2H-benzo[b][1,4,5]oxathiazepin-2-yl)methyl)phenyl)propanoic acid]
Second: CC[C@@H]1CN(Cc2cc([C@@H](OCc3cn(CC)nn3)C(C)(C)C(=O)O)ccc2C)Cc2ncccc2O1 [Example 113, (R)-3-((1-Ethyl-1H-1,2,3-triazol-4-yl)methoxy)-3-(3-(((R)-2-ethyl-2,3-dihydropyrido[2,3-f][1,4]oxazepin-4(5H)-yl)methyl)-4-methylphenyl)-2,2-dimethylpropanoic Acid, Trifluoroacetate]
The EC50 of the first is lower: 1 to 10 nM for the first, 10 to 100 nM for the second.

Same assay, conditions: NQO1 specific activity induction, 48 hours with compound

`Cc1ccc(C(OCc2cn(C3COC3)nn2)C(C)(C)C(=O)O)cc1CN1C[C@@H](C)Cc2ccncc2S1(=O)=O` (single isomer, unassigned) [Example 102] and `Cc1ccc(C(OCc2cn(CC(C)C)nn2)C(C)(C)C(=O)O)cc1CN1C[C@@H](C)Oc2ccccc2S1(=O)=O` (single isomer, unassigned) [Example 16] fall in the same range of EC50: 10 to 100 nM for the first, 10 to 100 nM for the second.
